Measured values published in ChEMBL document CHEMBL4312011, “Synthesis and biological evaluation of triterpenoid thiazoles derived from betulonic acid, dihydrobetulonic acid, and ursonic acid” (Eur J Med Chem, 2020).
Values after ≈ are worked out from the molar mass of the structure shown. Active and inactive are the calls of the source. The calls are words filed in the database; no cut-off is given here.

Columns and labels:
CCRF-CEM [1] = assay: Cell cycle arrest in human CCRF-CEM cells assessed as decrease in proportion of cells in S phase at 5 times IC50 measured after 24 hrs by propidium iodide/RNase staining based flow cytometry analysis; format: functional
CCRF-CEM [2] = assay: Cell cycle arrest in human CCRF-CEM cells assessed as increase in G2/M phase accumulation at 5 times IC50 measured after 24 hrs by propidium iodide/RNase staining based flow cytometry analysis; format: functional
CCRF-CEM [3] = assay: Induction of mitochondrial membrane depolarization in human CCRF-CEM cells at 5 times IC50 measured after 24 hrs by JC-1 staining based flow cytometry analysis (reference value: 8.4 %); format: functional
CCRF-CEM [4] = assay: Induction of apoptosis in human CCRF-CEM cells assessed as decrease in Bcl-2 expression at 5 times IC50 concentration measured after 24 hrs by Western blot analysis; format: functional, cell-based
CCRF-CEM [5] = assay: Induction of apoptosis in human CCRF-CEM cells assessed as increase in BAX expression at 5 times IC50 concentration measured after 24 hrs by Western blot analysis; format: functional, cell-based
CCRF-CEM [6] = assay: Induction of apoptosis in human CCRF-CEM cells assessed as activation of procaspase 8 at 5 times IC50 concentration measured after 24 hrs by Western blot analysis; format: functional, cell-based
CCRF-CEM [7] = assay: Induction of apoptosis in human CCRF-CEM cells assessed as increase in caspase 3/7 activity using Ac-DEVD-AMC as substrate at 5 times IC50 concentration measured after 24 hrs by fluorescence assay; format: functional, cell-based
CCRF-CEM [8] = assay: Induction of apoptosis in human CCRF-CEM cells assessed as necrotic cells at 5 times IC50 concentration measured after 24 hrs by AnnexinV-FITC/propidium iodide staining based flow cytometry analysis (reference value: 0.1 %); format: functional
CCRF-CEM [9] = assay: Induction of apoptosis in human CCRF-CEM cells assessed as late apoptotic cells at 5 times IC50 concentration measured after 24 hrs by AnnexinV-FITC/propidium iodide staining based flow cytometry analysis (reference value: 0.1 %); format: functional
CCRF-CEM [10] = assay: Induction of apoptosis in human CCRF-CEM cells assessed as early apoptotic cells at 5 times IC50 concentration measured after 24 hrs by AnnexinV-FITC/propidium iodide staining based flow cytometry analysis (reference value: 2.8 %); format: functional
CCRF-CEM [11] = assay: Induction of apoptosis in human CCRF-CEM cells assessed as viable cells at 5 times IC50 concentration measured after 24 hrs by AnnexinV-FITC/propidium iodide staining based flow cytometry analysis (reference value: 97 %); format: functional
[12] = Solubility of compound in 10 % DMSO in water by HPLC-MS analysis; format: physicochemical
[13] = Solubility of compound in 0.5 % DMSO in water by HPLC-MS analysis; format: physicochemical
[14] = Solubility of compound in 5 % DMSO in water by HPLC-MS analysis; format: physicochemical
[15] = Protein binding in human plasma at 10 uM measured after 4 hrs by rapid equilibrium dialysis; format: ADME, cell-free; details: read-out: PPB (converted)
[16] = Permeability of compound in PBS buffer assessed as permeability coefficient at pH 7.4 incubated for 18 hrs by PAMPA based RF-MS analysis; format: ADME; details: pH 7.4, 18 h
[17] = Microsomal stability in human liver microsomes assessed as parent compound remaining at 2 uM incubated for 60 mins by RF-MS analysis; format: ADME, Microsome; details: read-out: Stability
[18] = Microsomal stability in human liver microsomes assessed as parent compound remaining at 2 uM incubated for 30 mins by RF-MS analysis; format: ADME, Microsome; details: read-out: Stability
[19] = Microsomal stability in human liver microsomes assessed as parent compound remaining at 2 uM incubated for 15 mins by RF-MS analysis; format: ADME, Microsome; details: read-out: Stability
[20] = Stability in human plasma assessed as parent compound remaining at 2 uM incubated for 60 mins by RF-MS analysis; format: ADME, cell-free; details: read-out: Stability
[21] = Stability in human plasma assessed as parent compound remaining at 2 uM incubated for 120 mins by RF-MS analysis; format: ADME, cell-free; details: read-out: Stability
[22] = Stability in human plasma assessed as parent compound remaining at 2 uM incubated for 30 mins by RF-MS analysis; format: ADME, cell-free; details: read-out: Stability
[23] = Stability in human plasma assessed as parent compound remaining at 2 uM incubated for 15 mins by RF-MS analysis; format: ADME, cell-free; details: read-out: Stability
[24] = Chemical stability of compound in PBS buffer assessed as parent compound remaining at 2 uM at pH 7.4 and 37 degC incubated for 120 mins by RF-MS analysis; format: physicochemical; details: read-out: Stability
[25] = Chemical stability of compound in PBS buffer assessed as parent compound remaining at 2 uM at pH 7.4 and 37 degC incubated for 60 mins by RF-MS analysis; format: physicochemical; details: read-out: Stability
[26] = Chemical stability of compound in PBS buffer assessed as parent compound remaining at 2 uM at pH 7.4 and 37 degC incubated for 15 mins by RF-MS analysis; format: physicochemical; details: read-out: Stability
[27] = Chemical stability of compound in PBS buffer assessed as parent compound remaining at 2 uM at pH 7.4 and 37 degC incubated for 30 mins by RF-MS analysis; format: physicochemical; details: read-out: Stability
MRC5 = assay: Cytotoxicity against human MRC5 cells incubated for 72 hrs by MTS assay; format: cell-based; details: MRC5, 72 h
U2OS = assay: Cytotoxicity against human U2OS cells incubated for 72 hrs by MTS assay; format: functional, cell-based
BJ = assay: Cytotoxicity against human BJ cells incubated for 72 hrs by MTS assay; format: cell-based
A549 = assay: Cytotoxicity against human A549 cells incubated for 72 hrs by MTS assay; format: functional, cell-based; details: A549, 72 h
K562 = assay: Cytotoxicity against human K562 cells incubated for 72 hrs by MTS assay; format: functional, cell-based; details: K562, 72 h
[28] = Cytotoxicity against human K562-TAX cells incubated for 72 hrs by MTS assay; format: functional, cell-based
HCT-116 [29] = assay: Cytotoxicity against p53 knockout human HCT116 cells incubated for 72 hrs by MTS assay; format: functional, cell-based; details: HCT-116, 72 h
HCT-116 [30] = assay: Cytotoxicity against human HCT116 cells incubated for 72 hrs by MTS assay; format: functional, cell-based; details: HCT-116, 72 h
CCRF-CEM [31] = assay: Cytotoxicity against human CCRF-CEM cells incubated for 72 hrs by MTS assay; format: functional, cell-based
[32] = Cytotoxicity against human CEM-DNR-bulk cells incubated for 72 hrs by MTS assay; format: functional, cell-based
CCRF-CEM [33] = assay: Induction of apoptosis in human CCRF-CEM cells assessed as activation of PARP cleavage at 5 times IC50 concentration measured after 24 hrs by Western blot analysis; format: functional, cell-based
CCRF-CEM [34] = assay: Induction of apoptosis in human CCRF-CEM cells assessed as activation of caspase 7 at 5 times IC50 concentration measured after 24 hrs by Western blot analysis; format: functional, cell-based
CCRF-CEM [35] = assay: Induction of apoptosis in human CCRF-CEM cells assessed as activation of caspase 3 at 5 times IC50 concentration measured after 24 hrs by Western blot analysis; format: functional, cell-based
CCRF-CEM [36] = assay: Cell cycle arrest in human CCRF-CEM cells assessed as decrease in proportion of cells in G1 phase at 5 times IC50 measured after 24 hrs by propidium iodide/RNase staining based flow cytometry analysis; format: functional

## CC1(C)CC[C@]2(C(=O)O)CC[C@]3(C)C(=CC[C@@H]4[C@@]5(C)Cc6sc(N)nc6C(C)(C)[C@@H]5CC[C@]43C)[C@@H]2C1
CCRF-CEM [1]
  Activity: Active
CCRF-CEM [2]
  Activity: Active
CCRF-CEM [3]
  Activity: 23.4%
CCRF-CEM [4]
  Activity: Active
CCRF-CEM [5]
  Activity: Active
CCRF-CEM [6]
  Activity: Active
CCRF-CEM [7]
  Activity: Active
CCRF-CEM [8]
  Activity: 0.1%
CCRF-CEM [9]
  Activity: 0.5%
CCRF-CEM [10]
  Activity: 12%
CCRF-CEM [11]
  Activity: 87.4%
[12]
  solubility: 91 µM (≈ 46.5 µg/mL)
[13]
  solubility: 27 µM (≈ 13.8 µg/mL)
[14]
  solubility: 45 µM (≈ 23 µg/mL)
[15]
  fraction unbound at 4 h, 10 µM: 0.011
[16]
  log(permeability): -7.16
[17]
  remaining at 1 h, 2 µM: 87.1%
[18]
  remaining at 0.5 h, 2 µM: 90%
[19]
  remaining at 0.25 h, 2 µM: 96.8%
[20]
  remaining at 1 h, 2 µM: 99.4%
[21]
  remaining at 2 h, 2 µM: 99.1%
[22]
  remaining at 0.5 h, 2 µM: 99.2%
[23]
  remaining at 0.25 h, 2 µM: 99.4%
[24]
  remaining at 2 h, 2 µM: 74.9%
[25]
  remaining at 1 h, 2 µM: 74.8%
[26]
  remaining at 0.25 h, 2 µM: 91.2%
[27]
  remaining at 0.5 h, 2 µM: 77%
MRC5
  IC50: > 50 µM
U2OS
  IC50: 28.8 µM
BJ
  IC50: > 50 µM
A549
  IC50: 47.7 µM
K562
  IC50: > 50 µM
[28]
  IC50: 18.9 µM
HCT-116 [29]
  IC50: 33.3 µM
HCT-116 [30]
  IC50: 31 µM
CCRF-CEM [31]
  IC50: 5.2 µM
[32]
  IC50: 19.8 µM

## C=C(C)[C@@H]1CC[C@]2(C(=O)O)CC[C@]3(C)[C@H](CC[C@@H]4[C@@]5(C)Cc6sc(N)nc6C(C)(C)[C@@H]5CC[C@]43C)[C@@H]12
CCRF-CEM [1]
  Activity: Active
CCRF-CEM [2]
  Activity: Active
CCRF-CEM [3]
  Activity: 62.2%
CCRF-CEM [4]
  Activity: Active
CCRF-CEM [5]
  Activity: Active
CCRF-CEM [6]
  Activity: Active
CCRF-CEM [33]
  Activity: Active
CCRF-CEM [34]
  Activity: Active
CCRF-CEM [35]
  Activity: Active
CCRF-CEM [7]
  Activity: Active
CCRF-CEM [8]
  Activity: 0.8%
CCRF-CEM [9]
  Activity: 2.1%
CCRF-CEM [10]
  Activity: 20.2%
CCRF-CEM [11]
  Activity: 76.9%
[12]
  solubility: 89 µM (≈ 45.5 µg/mL)
[13]
  solubility: 26 µM (≈ 13.3 µg/mL)
[14]
  solubility: 45 µM (≈ 23 µg/mL)
[15]
  fraction unbound at 4 h, 10 µM: 0.042
[16]
  log(permeability): -5.34
[17]
  remaining at 1 h, 2 µM: 25.8%
[18]
  remaining at 0.5 h, 2 µM: 26%
[19]
  remaining at 0.25 h, 2 µM: 31%
[20]
  remaining at 1 h, 2 µM: 97.7%
[21]
  remaining at 2 h, 2 µM: 97.7%
[22]
  remaining at 0.5 h, 2 µM: 99.2%
[23]
  remaining at 0.25 h, 2 µM: 99.5%
[24]
  remaining at 2 h, 2 µM: 86.9%
[25]
  remaining at 1 h, 2 µM: 90.8%
[26]
  remaining at 0.25 h, 2 µM: 99.5%
[27]
  remaining at 0.5 h, 2 µM: 91.3%
MRC5
  IC50: > 50 µM
U2OS
  IC50: 48 µM
BJ
  IC50: > 50 µM
A549
  IC50: 38.4 µM
K562
  IC50: > 50 µM
[28]
  IC50: 17.4 µM
HCT-116 [29]
  IC50: 48.3 µM
HCT-116 [30]
  IC50: 36.5 µM
CCRF-CEM [31]
  IC50: 2.4 µM
[32]
  IC50: 25.6 µM

## C[C@H]1[C@H](C)CC[C@]2(C(=O)O)CC[C@]3(C)C(=CC[C@@H]4[C@@]5(C)CC(Br)C(=O)C(C)(C)[C@@H]5CC[C@]43C)[C@H]12 (stereo partly drawn)
CCRF-CEM [36]
  Activity: Active
CCRF-CEM [1]
  Activity: Active
CCRF-CEM [2]
  Activity: Active
CCRF-CEM [3]
  Activity: 36.3%
CCRF-CEM [4]
  Activity: Active
CCRF-CEM [5]
  Activity: Active
CCRF-CEM [6]
  Activity: Active
CCRF-CEM [33]
  Activity: Active
CCRF-CEM [34]
  Activity: Active
CCRF-CEM [35]
  Activity: Active
CCRF-CEM [7]
  Activity: Active
CCRF-CEM [8]
  Activity: 0.4%
CCRF-CEM [9]
  Activity: 2.4%
CCRF-CEM [10]
  Activity: 16.5%
CCRF-CEM [11]
  Activity: 80.7%
[12]
  solubility: 83 µM (≈ 44.3 µg/mL)
[13]
  solubility: 24 µM (≈ 12.8 µg/mL)
[14]
  solubility: 30 µM (≈ 16 µg/mL)
[15]
  fraction unbound at 4 h, 10 µM: 0.176
[16]
  log(permeability): -4.93
[17]
  remaining at 1 h, 2 µM: 66.2%
[18]
  remaining at 0.5 h, 2 µM: 80.7%
[19]
  remaining at 0.25 h, 2 µM: 93.4%
[20]
  remaining at 1 h, 2 µM: 94.9%
[21]
  remaining at 2 h, 2 µM: 85.5%
[22]
  remaining at 0.5 h, 2 µM: 98.2%
[23]
  remaining at 0.25 h, 2 µM: 98.5%
[24]
  remaining at 2 h, 2 µM: 88.5%
[25]
  remaining at 1 h, 2 µM: 99.1%
[26]
  remaining at 0.25 h, 2 µM: 99.6%
[27]
  remaining at 0.5 h, 2 µM: 99.2%
MRC5
  IC50: 29.3 µM
U2OS
  IC50: 20.7 µM
BJ
  IC50: 49.5 µM
A549
  IC50: 27.6 µM
K562
  IC50: 38.8 µM
[28]
  IC50: 25.1 µM
HCT-116 [29]
  IC50: 29.8 µM
HCT-116 [30]
  IC50: 28.4 µM
CCRF-CEM [31]
  IC50: 3.6 µM
[32]
  IC50: 21.8 µM
